{"source": "patent US10450295B2", "about": "“Method of using an indolinone molecule and derivatives for inhibiting liver fibrosis and hepatitis” (Acclaim BioMed USA LLC, priority 2013, dated 2019)", "key": {"MMP-2 gene expression": {"test_system": "MMP-2 gene expression", "assay": "Real-time RT-PCR in HSC, MMP-2", "format": "cell-based, human", "settings": "0.625 μM, FIG. 9", "protocol": "Human Hepatic Stellate cells (LX-2 cell line) (HSCs) were obtained from the Key Lab of Regenerative Medicine, Jinan University, Guangzhou, China, which were maintained in Dulbecco's Modified Eagle Medium (DMEM)+10% fetal calf serum and penicillin-streptomycin (100 unit/ml and 0.1 mg/ml, respectively), in 5% CO2 at 37° C. inside a humidified cell incubator. The culture medium was changed every three days. To test the effects of small molecule Hesperadin on the mouse and human HSCs, the cultures were treated with 0.625 μM of Hesperadin for 48 hrs. […] The proliferation of HSCs was also evaluated by the MTT staining assay with 3-(4,5-Dimethylthiazol-2-yl)-2,5-diphenyltetrazolium bromide). […] The absorbance (at 570 nm) was measured using a BIORAD 3550 Microplate Reader. […]\nCollagen type-I, -III and -VI, MMP-2, MMP-9 and TIMP-1 gene expression was determined using quantitative real-time PCR. […] Quantitation of mRNA levels was performed using a SYBR® Premix Ex Taq™ Kit (Takara) in an Applied Biosystems 7900HT Fast Real-Time PCR System. To quantify the amount of specific mRNA in the samples, a standard curve was generated for each PCR run using four amounts of the cDNA synthesized from our HSC cultures and liver samples. […] Data was analyzed using a StatView software (Abacus Concepts Inc) with Student's t-test."}, "[1]": {"test_system": "collagen type I in fibrotic liver", "assay": "Carbon tetrachloride liver fibrosis mouse model, immunohistological staining for collagen type I", "format": "in vivo, mice", "protocol": "The ability of Hesperadin to inhibit collagen expressions in a liver fibrosis mouse model was then examined. To induce fibrosis in the liver, mice were injected with carbon tetrachloride, twice a week, for 6 weeks. In control group of mice, they were injected with DMSO/saline, twice a week for 2 weeks. For the experimental group of mice, they were injected with either 50 or 500 μg/kg Hesperadin after chronic carbon tetrachloride treatment. […] In contrast, following chronic carbon tetrachloride treatment, collagen type I was expressed strongly at the lobules, the portal areas, the lining of the sinusoid and around the central veins (FIGS. 12A and 12B). […] In mice of carbon tetrachloride treatment alone, collagen type I was strongly expressed in the periphery of the hepatic sinusoids. Forty female ICR mice (6 weeks old) were acquired from the MOE Key laboratory for Regenerative Medicine. To induce liver fibrosis, the mice were injected i.p. with carbon tetrachloride (1.65 ml/kg body weight suspended in 0.1 ml olive oil) twice per week for a total of 6 weeks. In the control group, mice received carbon tetrachloride injection for 6 weeks followed by DMSO or saline injections, twice a week, for two weeks. In the experimental group, mice received carbon tetrachloride for 6 weeks followed by i.p. injections of 50 μg/kg or 500 μg/kg Hesperadin, twice a week, for two weeks. […] The extent of fibrosis was scored according to Zhou, et al. (5): 1=thickened perivenular collagen and a few thin collagen septa; 2=thin septa with incomplete bridging between portal regions; 3=thin septa and extensive bridging; 4=thickened septa with complete bridging of portal regions and a nodular appearance. Collagen content was measured with a Universal Imaging (Chester, Pa.) analysis system. Briefly, trichrome-stained liver sections were analysed using an Axioskope 50 microscope (CarlZeiss Lab). […] Collagen accumulation was calculated as the percentage of the total field at ×40 magnifications that was stained blue. The arrangement and morphology of the hepatocytes will also be examined and recorded. […]"}}, "note": "“Also recorded” adds a separate entry of the source."}
{"smiles": "CCS(=O)(=O)Nc1ccc2c(c1)/C(=C(/Nc1ccc(CN3CCCCC3)cc1)c1ccccc1)C(=O)N2", "note": "[Hesperadin, (Z)—N-(2-oxo-3-(Phenyl(4-(piperidin-1-ylmethyl)phenylamino)methylene)indolin-5-yl)ethanesulfonamide]", "values": [{"measurement": "MMP-2 mRNA expression", "setting": "MMP-2 gene expression", "value": "inhibited"}, {"measurement": "collagen type I in histological liver sections", "setting": "[1]; 50 μg/kg i.p. twice a week for two weeks after 6 weeks CCl4, mice", "value": "less collagen type I evident"}, {"measurement": "collagen type I in histological liver sections", "setting": "[1]; 500 μg/kg i.p. twice a week for two weeks after 6 weeks CCl4, mice", "value": "less collagen type I evident; also recorded: significantly less collagen staining"}, {"measurement": "quantified intensity of collagen type I staining", "setting": "[1]; 500 μg/kg, FIG. 13, p<0.05", "value": "significant reduction in collagen type I production and expression"}]}
